Measurements taken from patent US20190375786A1, “STABLE PEPTIDES AND METHODS OF USE THEREOF” (Fred Hutchinson Cancer Research Center, priority 2016, published 2019).
Positions of bridges follow the written chain, without caps; N, C: chain ends. Residues, ends and D or L forms follow the SMILES beside them.

Columns and labels:
[1] = biological target: trypsin (Sus scrofa, UniProt P00761); assay: Trypsin digestion resistance of soluble peptide, RP-HPLC; assay type: in vitro ADME, porcine; set-up: purchased Sigma Aldrich 6567; details: 500 U/ml trypsin, 30 minutes at 37.5° C.; HPLC peak vs untreated peptide
Chain of trypsin (P00761 9-231): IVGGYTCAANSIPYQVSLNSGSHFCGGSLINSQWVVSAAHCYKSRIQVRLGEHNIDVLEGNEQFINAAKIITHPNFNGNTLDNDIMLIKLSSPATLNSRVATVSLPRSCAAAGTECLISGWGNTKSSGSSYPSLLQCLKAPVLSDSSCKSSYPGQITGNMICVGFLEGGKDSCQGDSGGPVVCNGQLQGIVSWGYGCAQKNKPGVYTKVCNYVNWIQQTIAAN
How it was run: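 Read-out was RP-HPLC (C-18, water/acetonitrile with 0.1% TFA, 5-45% over 10 min) of peptide left after trypsin treatment. Digest: 12.5 μg peptide, 500 U/ml porcine trypsin, PBS, 37.5° C for 30 min, stopped by soybean trypsin inhibitor; samples then reduced (10 mM DTT) or left non-reduced.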

[2] = biological target: pepsin (Sus scrofa, UniProt P00791); assay: Pepsin digestion resistance in simulated gastric fluid, RP-HPLC; assay type: in vitro ADME, porcine; set-up: purchased Sigma Aldrich P7012; details: 500 U/ml pepsin in SGF pH 1.05, 30 minutes at 37.5° C.; HPLC peak vs untreated peptide
Chain of pepsin (P00791 60-385): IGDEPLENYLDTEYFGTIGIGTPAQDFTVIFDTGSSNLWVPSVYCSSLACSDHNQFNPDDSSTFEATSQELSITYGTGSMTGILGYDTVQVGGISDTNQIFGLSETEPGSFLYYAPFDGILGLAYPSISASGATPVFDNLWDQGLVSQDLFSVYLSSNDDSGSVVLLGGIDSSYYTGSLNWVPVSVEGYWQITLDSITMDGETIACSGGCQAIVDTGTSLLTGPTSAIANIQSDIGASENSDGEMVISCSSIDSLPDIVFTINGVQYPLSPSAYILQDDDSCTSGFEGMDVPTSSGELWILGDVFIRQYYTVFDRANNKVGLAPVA
How it was run: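 Digestion resistance read by reversed-phase HPLC (C-18, 0.1% TFA, 5–45% acetonitrile over 10 min; 214/280 nm) after 12.5 μg peptide spent 30 min at 37.5 °C in pH 1.05 simulated gastric fluid, with or without 500 U/ml pepsin. Some samples quenched with Tris base and DTT.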

Row | Compound | Resistance to Trypsin (500 U/ml) [1] | Resistance to Pepsin (500 U/ml) [2]
1 | CC[C@H](C)[C@@H]1NC(=O)[C@@H](NC(=O)[C@H](CC(=O)O)NC(=O)[C@H](CCCCN)NC(=O)[C@H](CCC(=O)O)NC(=O)[C@H](CO)NC(=O)[C@H](CO)NC(=O)CN)CSSC[C@@H]2NC(=O)[C@@H]3CSSC[C@@H](C(=O)N[C@@H](CCCNC(=N)N)C(=O)O)NC(=O)[C@H](CCCNC(=N)N)NC(=O)[C@H](CCCCN)NC(=O)[C@H](CCC(=O)O)NC(=O)[C@@H]4CCCN4C(=O)[C@H](CC(N)=O)NC(=O)[C@H]([C@@H](C)O)NC(=O)CNC(=O)[C@H](CCCNC(=N)N)NC(=O)[C@H](CCCNC(=N)N)NC(=O)[C@H](CO)NC(=O)[C@H](CSSC[C@H](NC(=O)[C@H](CCCNC(=N)N)NC(=O)[C@H](CCC(N)=O)NC(=O)[C@H](CC(C)C)NC(=O)[C@H](Cc4c[nH]cn4)NC(=O)[C@H](CCCCN)NC1=O)C(=O)N[C@@H](CCCNC(=N)N)C(=O)N[C@@H](CCC(=O)O)C(=O)N[C@@H](CC(N)=O)C(=O)N[C@@H](CCCCN)C(=O)N[C@@H](CC(=O)O)C(=O)N3)NC(=O)[C@H](CCCCN)NC(=O)[C@H](CCCCN)NC(=O)[C@H](CO)NC2=O [compound 29] (H-GSSEKDCIKHLQRCRENKDCCSKKCSRRGTNPEKRCR-OH; disulfide 7-21, 14-25, 20-36) | Low (A peptide classified as low indicates that the majority (over 75%) of the HPLC peak of the treated peptide disappeared as compared to the HPLC peak of the untreated peptide) | High (A peptide classified as high indicates that the majority (at least 75%) of the HPLC peak of the treated peptide is still present as compared to the HPLC peak of the untreated peptide)
2 | CC[C@H](C)[C@@H]1NC(=O)[C@H](C)NC(=O)[C@H](CCC(=O)O)NC(=O)[C@H](CCCCN)NC(=O)[C@@H]2CSSC[C@@H](C(=O)N[C@@H](Cc3ccc(O)cc3)C(=O)N3CCC[C@H]3C(=O)O)NC(=O)[C@H](CCCCN)NC(=O)[C@@H]3CSSC[C@H](NC(=O)[C@H](CCC(=O)O)NC(=O)[C@@H]4CCCN4C(=O)[C@H](CO)NC(=O)CNC(=O)[C@H](CCCNC(=N)N)NC(=O)[C@@H](NC(=O)[C@H](CCCCN)NC(=O)[C@@H](NC(=O)[C@H](CC(N)=O)NC(=O)[C@@H](NC(=O)[C@H](Cc4ccccc4)NC(=O)[C@@H](NC(=O)[C@H](CO)NC(=O)CN)C(C)C)[C@@H](C)CC)C(C)C)CSSC[C@H](NC(=O)[C@H](CCCCN)NC(=O)CNC(=O)[C@H](C)NC(=O)[C@H](CO)NC(=O)[C@H](CCCCN)NC(=O)CNC1=O)C(=O)N[C@@H](CCSC)C(=O)N[C@@H](CC(N)=O)C(=O)NCC(=O)N[C@@H](CCCCN)C(=O)N3)C(=O)N[C@@H](CC(C)C)C(=O)N1CCC[C@H]1C(=O)N[C@@H](CCCCN)C(=O)N2 [compound 37] (H-GSVFINVKCRGSPECLPKCKEAIGKSAGKCMNGKCKCYP-OH; disulfide 9-30, 15-35, 19-37) | Low (A peptide classified as low indicates that the majority (over 75%) of the HPLC peak of the treated peptide disappeared as compared to the HPLC peak of the untreated peptide) | High (A peptide classified as high indicates that the majority (at least 75%) of the HPLC peak of the treated peptide is still present as compared to the HPLC peak of the untreated peptide)
3 | CC[C@H](C)[C@@H]1NC(=O)[C@@H]2CSSC[C@H](NC(=O)[C@@H](NC(=O)[C@H](C)NC(=O)[C@H](CO)NC(=O)CN)C(C)C)C(=O)N[C@@H](CC(N)=O)C(=O)N[C@@H](CC(C)C)C(=O)N[C@@H](CCCCN)C(=O)N[C@@H](CCCNC(=N)N)C(=O)N[C@H]3CSSC[C@H](NC(=O)[C@H](CCCCN)NC(=O)[C@H](CC(=O)O)NC(=O)CNC1=O)C(=O)N[C@@H](CCC(=O)O)C(=O)N[C@H](C(=O)N[C@H](C(=O)N[C@@H](CCCCN)C(=O)N[C@@H](Cc1c[nH]cn1)C(=O)NCC(=O)O)C(C)C)CSSC[C@H](NC(=O)[C@H](CO)NC(=O)[C@H](CC(C)C)NC(=O)[C@H](CCC(N)=O)NC3=O)C(=O)N[C@@H](CCCNC(=N)N)C(=O)N[C@@H](CO)C(=O)N[C@@H](CC(C)C)C(=O)NCC(=O)N[C@@H](CC(C)C)C(=O)N[C@@H](CC(C)C)C(=O)NCC(=O)N[C@@H](CCCCN)C(=O)N2 [compound 8] (H-GSAVCNLKRCQLSCRSLGLLGKCIGDKCECVKHG-OH; disulfide 5-23, 10-28, 14-30) | Low (A peptide classified as low indicates that the majority (over 75%) of the HPLC peak of the treated peptide disappeared as compared to the HPLC peak of the untreated peptide) | High (A peptide classified as high indicates that the majority (at least 75%) of the HPLC peak of the treated peptide is still present as compared to the HPLC peak of the untreated peptide)
4 | CC[C@H](C)[C@H](NC(=O)CNC(=O)[C@H](CO)NC(=O)CN)C(=O)N[C@H](C(=O)N[C@H]1CSSC[C@@H]2NC(=O)[C@H]([C@@H](C)CC)NC(=O)[C@H](CC(N)=O)NC(=O)[C@H](C(C)C)NC(=O)[C@H](CCCCN)NC(=O)[C@H](CCCCN)NC(=O)CNC(=O)[C@H](CCC(N)=O)NC(=O)[C@H](CCSC)NC(=O)CNC(=O)[C@@H]3CSSC[C@@H](C(=O)N[C@@H](CCCCN)C(=O)N[C@@H](CCCCN)C(=O)NCC(=O)O)NC(=O)[C@H](CCCCN)NC(=O)[C@H](CSSC[C@H](NC(=O)[C@H](C(C)C)NC(=O)[C@H](CCCCN)NC1=O)C(=O)N[C@@H](CCCCN)C(=O)N[C@@H]([C@@H](C)CC)C(=O)N[C@@H]([C@@H](C)CC)C(=O)N3)NC(=O)[C@H](CCCCN)NC(=O)[C@H]([C@@H](C)CC)NC(=O)[C@@H]1CCCN1C(=O)[C@H](C)NC(=O)[C@H](CCCCN)NC2=O)C(C)C [compound 55] (H-GSGIVCKVCKIICGMQGKKVNICKAPIKCKCKKG-OH; disulfide 6-23, 9-29, 13-31) | Low (A peptide classified as low indicates that the majority (over 75%) of the HPLC peak of the treated peptide disappeared as compared to the HPLC peak of the untreated peptide) | High (A peptide classified as high indicates that the majority (at least 75%) of the HPLC peak of the treated peptide is still present as compared to the HPLC peak of the untreated peptide)
5 | CC[C@H](C)[C@@H]1NC(=O)[C@@H]2CSSC[C@@H]3NC(=O)[C@H](CCCCN)NC(=O)CNC(=O)[C@H](CC(N)=O)NC(=O)[C@H](CCSC)NC(=O)[C@H](CSSC[C@H](NC(=O)[C@H](CCCCN)NC(=O)[C@@H](NC(=O)[C@H](CC(=O)O)NC(=O)[C@@H](NC(=O)[C@@H]4CCCN4C(=O)[C@@H](NC(=O)CNC(=O)[C@H](CO)NC(=O)CN)C(C)C)[C@@H](C)O)C(C)C)C(=O)N[C@@H](CCCNC(=N)N)C(=O)NCC(=O)N[C@@H](CO)C(=O)N4CCC[C@H]4C(=O)N[C@@H](CCC(N)=O)C(=O)N2)NC(=O)[C@H](CCCCN)NC(=O)CNC(=O)[C@H](Cc2ccccc2)NC(=O)[C@H](CCCNC(=N)N)NC(=O)[C@H](CCSC)NC(=O)CNC(=O)[C@H](C)NC(=O)[C@H](CC(=O)O)NC(=O)[C@H](CCCCN)NC(=O)[C@H](CSSC[C@@H](C(=O)N[C@H](C(=O)N2CCC[C@H]2C(=O)N[C@@H](CCCCN)C(=O)O)[C@@H](C)O)NC(=O)[C@H](Cc2c[nH]cn2)NC3=O)NC(=O)[C@@H]2CCCN2C(=O)[C@H](CCC(N)=O)NC1=O [compound 56] (H-GSGVPTDVKCRGSPQCIQPCKDAGMRFGKCMNGKCHCTPK-OH; disulfide 10-30, 16-35, 20-37) | Low (A peptide classified as low indicates that the majority (over 75%) of the HPLC peak of the treated peptide disappeared as compared to the HPLC peak of the untreated peptide) | High (A peptide classified as high indicates that the majority (at least 75%) of the HPLC peak of the treated peptide is still present as compared to the HPLC peak of the untreated peptide)
6 | CC[C@H](C)[C@H](NC(=O)[C@@H](NC(=O)[C@@H](NC(=O)[C@H](CO)NC(=O)CN)C(C)C)C(C)C)C(=O)NCC(=O)N[C@@H](CCC(N)=O)C(=O)N[C@@H](CCCNC(=N)N)C(=O)N[C@H]1CSSC[C@@H]2NC(=O)[C@H](CCCCN)NC(=O)CNC(=O)[C@H]([C@@H](C)O)NC(=O)[C@H](C)NC(=O)[C@H](CCCCN)NC(=O)CNC(=O)[C@H](C(C)C)NC(=O)[C@H](CC(C)C)NC(=O)[C@H](CCCCN)NC(=O)[C@H](CCCCN)NC(=O)[C@@H]3CSSC[C@@H](C(=O)O)NC(=O)[C@H](CC(=O)O)NC(=O)[C@H](CSSC[C@H](NC(=O)[C@H](CC(=O)O)NC(=O)[C@@H]4CCCN4C(=O)[C@H](CO)NC(=O)[C@H](CCCNC(=N)N)NC(=O)[C@H](Cc4ccc(O)cc4)NC1=O)C(=O)N[C@@H](Cc1ccc(O)cc1)C(=O)N[C@@H](CO)C(=O)N[C@@H](C)C(=O)N3)NC(=O)[C@H](CCCNC(=N)N)NC(=O)CNC(=O)[C@H](CC(N)=O)NC(=O)[C@H]([C@@H](C)O)NC2=O [compound 36] (H-GSVVIGQRCYRSPDCYSACKKLVGKATGKCTNGRCDC-OH; disulfide 9-30, 15-35, 19-37) | Low (A peptide classified as low indicates that the majority (over 75%) of the HPLC peak of the treated peptide disappeared as compared to the HPLC peak of the untreated peptide) | High (A peptide classified as high indicates that the majority (at least 75%) of the HPLC peak of the treated peptide is still present as compared to the HPLC peak of the untreated peptide)
